# Experimental data from US11225505B2, “Antimicrobial polymyxin derivative compounds” (MONASH UNIVERSITY, priority 2015, dated 2022).
# Like-named read-outs stand apart in the source and are kept apart here. Where a SMILES comes first, the peptide text is derived from it. Bridges are numbered along the chain shown (N, C = ends). [ ]: non-standard residue; d: D form. The star is where a group is joined. Quinoxaline2carbonyl = O=C(c1cnc2ccccc2n1)*; X15 = O=C(c1ccc(Cl)nc1Cl)*; Dab = NCC[C@H](N)C(=O)O; Abu = CC[C@H](N)C(=O)O; Dap = NC[C@H](N)C(=O)O; X71 = O=C(c1sccc1Cl)*
# Tests used:
# Format in all cases: cell-based
# [1] = system: Pseudomonas aeruginosa ATCC 27853; conditions: ATCC 27853
# Experimental: (§1) MICs of the lipopeptides (trifluoroacetic acid salt, TFA) were determined by broth microdilution in cation-adjusted Mueller-Hinton broth (CAMHB) (Oxoid Australia, Thebarton, SA, Australia) according to the Clinical and Laboratory Standards Institute protocol (Clinical and Laboratory Standards Institute, Performance standards for antimicrobial susceptibility testing; twentyforth informational supplement M100-S24. Wayne, Pa., 2014). Polymyxin B sulphate was employed as the control. Antimicrobial activity of Compounds 1-104 against polymyxin-susceptible Gram-negative bacteria was examined. The following isolates were examined: Pseudomonas aeruginosa ATCC 27853, Pseudomonas aeruginosa FADDI-PA022*, Pseudomonas aeruginosa FADDI-PA01*, Pseudomonas aeruginosa FADDI-PA038*, Acinetobacter baumannii FADDI-AB034*, Acinetobacter baumannii ATCC 17978, Acinetobacter baumannii FADDI-AB030*, Klebsiella pneumoniae FADDI-KP032, Klebsiella pneumoniae FADDI-KP022*, Klebsiella pneumoniae Kp BM1*, Enterobacter cloacae FADDI-EC006, Enterobacter cloacae FADDI-EC001, and Enterobacter cloacae FADDI-EC003 (* Multi drug-resistant clinical isolates, § New Delhi Metallo-beta-lactamase-1 (NDM-1) producing). The results are illustrated in Tables 4 and 5.
# [2] = system: Acinetobacter baumannii FADDI-AB034; conditions: FADDI-AB034
# Experimental: as §1
# [3] = system: Klebsiella pneumoniae Kp BM1; conditions: Kp BM1
# Experimental: as §1
# [4] = system: Klebsiella pneumoniae FADDI-KP032; conditions: FADDI-KP032
# Experimental: as §1
# [5] = system: Enterobacter cloacae FADDI-EC006; conditions: FADDI-EC006
# Experimental: as §1
# [6] = system: Enterobacter cloacae FADDI-EC003; conditions: FADDI-EC003
# Experimental: as §1
# [7] = system: Pseudomonas aeruginosa FADDI-PA01; conditions: FADDI-
# Experimental: as §1
# [8] = system: Klebsiella pneumoniae FADDI-KP022; conditions: FADDI-KP022
# Experimental: as §1
# [9] = system: Pseudomonas aeruginosa FADDI-PA038; conditions: FADDI-PA038
# Experimental: as §1
# [10] = system: Enterobacter cloacae FADDI-EC001; conditions: FADDI-EC001
# Experimental: as §1
# [11] = system: Acinetobacter baumannii ATCC 17978; conditions: ATCC 17978
# Experimental: as §1
# [12] = system: Pseudomonas aeruginosa FADDI-PA022; conditions: FADDI-PA022
# Experimental: as §1
# [13] = system: Acinetobacter baumannii FADDI-AB030; experiment: microbe, parasite or virus in culture; conditions: for MIC: Acinetobacter baumannii
# Experimental: as §1, with “Antimicrobial activity of Compounds 1-104 against polymyxin-susceptible Gram-negative bacteria was examined.” left out, “5. […]” for “5.”
# [14] = FADDIAB030, clinically used antibiotics, clinical isolate A. baumannii FADDI-AB030, read-out: minimum inhibitory concentration
molecule,measurement,setting,value
CC[C@@H]1NC(=O)[C@@H](CC(C)C)NC(=O)[C@H](CCN)NC(=O)[C@@H](NC(=O)[C@H](CN)NC(=O)[C@@H](NC(=O)[C@H](CCN)NC(=O)c2ccc(Cl)nc2Cl)[C@@H](C)O)CCNC(=O)[C@H]([C@@H](C)O)NC(=O)[C@H](CCN)NC(=O)[C@H](CCN)NC1=O [Compound 7] (X15-[Dab]T[Dap][Dab][Dab][dL][Abu][Dab][Dab]T; lactam 4-C),Minimum inhibitory concentration,[1],1 µg/mL
same,Minimum inhibitory concentration,[2],2 µg/mL
same,Minimum inhibitory concentration,[3],0.5 µg/mL
same,Minimum inhibitory concentration,[4],1 µg/mL
same,Minimum inhibitory concentration,[5],0.25 µg/mL
same,Minimum inhibitory concentration,[6],<0.125 µg/mL
same,Minimum inhibitory concentration,[7],0.25 µg/mL
same,Minimum inhibitory concentration,[8],<0.125 µg/mL
same,Minimum inhibitory concentration,[9],0.5 µg/mL
same,Minimum inhibitory concentration,[10],<0.125 µg/mL
same,Minimum inhibitory concentration,[11],1 µg/mL
same,Minimum inhibitory concentration,[12],1 µg/mL
same,Minimum inhibitory concentration,[13]; FADDI-AB030,0.5 µg/mL
CC[C@@H]1NC(=O)[C@@H](CC(C)C)NC(=O)[C@H](CCN)NC(=O)[C@@H](NC(=O)[C@H](CN)NC(=O)[C@@H](NC(=O)[C@H](CCN)NC(=O)c2sccc2Cl)[C@@H](C)O)CCNC(=O)[C@H]([C@@H](C)O)NC(=O)[C@H](CCN)NC(=O)[C@H](CCN)NC1=O [Compound 89] (X71-[Dab]T[Dap][Dab][Dab][dL][Abu][Dab][Dab]T; lactam 4-C),Minimum inhibitory concentration,[1],0.25 µg/mL
same,Minimum inhibitory concentration,[2],4 µg/mL
same,Minimum inhibitory concentration,[3],<0.125 µg/mL
same,Minimum inhibitory concentration,[4],0.25 µg/mL
same,Minimum inhibitory concentration,[5],<0.125 µg/mL
same,Minimum inhibitory concentration,[6],<0.125 µg/mL
same,Minimum inhibitory concentration,[7],0.25 µg/mL
same,Minimum inhibitory concentration,[8],<0.125 µg/mL
same,Minimum inhibitory concentration,[9],1 µg/mL
same,Minimum inhibitory concentration,[10],<0.125 µg/mL
same,Minimum inhibitory concentration,[11],4 µg/mL
same,Minimum inhibitory concentration,[12],0.25 µg/mL
same,Minimum inhibitory concentration,[13]; FADDI-AB030,2 µg/mL
"COc1c(N2C[C@@H]3CCCN[C@@H]3C2)c(F)cc2c(=O)c(C(=O)O)cn(C3CC3)c12 [Moxifloxacin, reference compound]",MIC,[13]; [14],> 4 µg/mL
CC[C@@H]1NC(=O)[C@@H](CC(C)C)NC(=O)[C@H](CCN)NC(=O)[C@@H](NC(=O)[C@H](CN)NC(=O)[C@@H](NC(=O)[C@H](CCN)NC(=O)c2cnc3ccccc3n2)[C@@H](C)O)CCNC(=O)[C@H]([C@@H](C)O)NC(=O)[C@H](CCN)NC(=O)[C@H](CCN)NC1=O [Compound 46] (Quinoxaline2carbonyl-[Dab]T[Dap][Dab][Dab][dL][Abu][Dab][Dab]T; lactam 4-C),Minimum inhibitory concentration,[1],0.5 µg/mL
same,Minimum inhibitory concentration,[2],4 µg/mL
same,Minimum inhibitory concentration,[3],0.25 µg/mL
same,Minimum inhibitory concentration,[4],<0.125 µg/mL
same,Minimum inhibitory concentration,[5],2 µg/mL
same,Minimum inhibitory concentration,[6],0.25 µg/mL
same,Minimum inhibitory concentration,[7],0.25 µg/mL
same,Minimum inhibitory concentration,[8],<0.125 µg/mL
same,Minimum inhibitory concentration,[9],0.5 µg/mL
same,Minimum inhibitory concentration,[10],0.25 µg/mL
same,Minimum inhibitory concentration,[11],4 µg/mL
same,Minimum inhibitory concentration,[12],0.5 µg/mL
same,Minimum inhibitory concentration,[13]; FADDI-AB030,2 µg/mL
"C[C@H]1COc2c(N3CCN(C)CC3)c(F)cc3c(=O)c(C(=O)O)cn1c23 [Levofloxacin, reference compound]",MIC,[13]; [14],> 4 µg/mL
"NCC[C@H](O)C(=O)N[C@@H]1C[C@H](N)[C@@H](O[C@H]2O[C@H](CN)[C@@H](O)[C@H](O)[C@H]2O)[C@H](O)[C@H]1O[C@H]1O[C@H](CO)[C@@H](O)[C@H](N)[C@H]1O [Amikacin, reference compound]",MIC,[13]; [14],> 32 µg/mL
"CN(C)c1cc(NC(=O)CNC(C)(C)C)c(O)c2c1C[C@H]1C[C@H]3[C@H](N(C)C)C(O)=C(C(N)=O)C(=O)[C@@]3(O)C(O)=C1C2=O [Tigecycline, reference compound]",MIC,"[13]; FADDIAB030, read-out: minimum inhibitory concentration",4 µg/mL
"C[C@@H](O)[C@H]1C(=O)N2C(C(=O)O)=C(S[C@@H]3CN[C@H](C(=O)Nc4cccc(C(=O)O)c4)C3)[C@H](C)[C@H]12 [Ertapenem, reference compound]",MIC,[13]; [14],> 8 µg/mL
"C[C@H]1[C@H](NC(=O)/C(=N\OC(C)(C)C(=O)O)c2csc(N)n2)C(=O)N1S(=O)(=O)O [Aztreonam, reference compound]",MIC,[13]; [14],> 16 µg/mL
"C[C@H]1c2cccc(O)c2C(=O)C2=C(O)[C@]3(O)C(=O)C(C(N)=O)=C(O)[C@@H](N(C)C)[C@@H]3[C@@H](O)[C@@H]21 [Doxycycline, reference compound]",MIC,[13]; [14],> 8 µg/mL
"NC[C@H]1O[C@H](O[C@H]2[C@H](O)[C@@H](O[C@H]3O[C@H](CO)[C@@H](O)[C@H](N)[C@H]3O)[C@H](N)C[C@@H]2N)[C@H](N)C[C@@H]1O [Tobramycin, reference compound]",MIC,[13]; [14],> 16 µg/mL
"CO/N=C(\C(=O)N[C@@H]1C(=O)N2C(C(=O)[O-])=C(C[N+]3(C)CCCC3)CS[C@H]12)c1csc(N)n1 [Cefepime, reference compound]",MIC,[13]; [14],> 16 µg/mL
"CN(C)c1ccc(O)c2c1C[C@H]1C[C@H]3[C@H](N(C)C)C(O)=C(C(N)=O)C(=O)[C@@]3(O)C(O)=C1C2=O [Minocycline, reference compound]",MIC,[13]; [14],> 8 µg/mL
"C[C@@H](O)[C@H]1C(=O)N2C(C(=O)O)=C(S[C@@H]3CN[C@H](CNS(N)(=O)=O)C3)[C@H](C)[C@H]12 [Doripenem, reference compound]",MIC,[13]; [14],> 8 µg/mL
"CCN1CCN(C(=O)N[C@@H](C(=O)N[C@@H]2C(=O)N3[C@@H]2SC(C)(C)[C@@H]3C(=O)O)c2ccccc2)C(=O)C1=O [Piperacillin, reference compound]",MIC,[13]; [14],> 64 µg/mL
"C[C@@H](O)[C@H]1C(=O)N2C(C(=O)O)=C(S[C@@H]3CN[C@H](C(=O)N(C)C)C3)[C@H](C)[C@H]12 [Meropenem, reference compound]",MIC,[13]; [14],> 8 µg/mL
"CN(C)[C@@H]1C(O)=C(C(N)=O)C(=O)[C@@]2(O)C(O)=C3C(=O)c4c(O)cccc4[C@@](C)(O)[C@H]3C[C@@H]12 [Tetracycline, reference compound]",MIC,[13]; [14],> 8 µg/mL
"CO/N=C(\C(=O)N[C@@H]1C(=O)N2C(C(=O)O)=C(CSc3nc(=O)c(=O)[nH]n3C)CS[C@H]12)c1csc(N)n1 [Ceftriaxone, reference compound]",MIC,[13]; [14],> 32 µg/mL
"C[C@@H](O)[C@H]1C(=O)N2C(C(=O)O)=C(SCCN=CN)C[C@H]12 [Imipenem, reference compound]",MIC,[13]; [14],> 8 µg/mL
"COc1c(N2CCNC(C)C2)c(F)cc2c(=O)c(C(=O)O)cn(C3CC3)c12 (stereo not drawn) [Gatifloxacin, reference compound]",MIC,[13]; [14],> 4 µg/mL
"CC(C)(O/N=C(\C(=O)N[C@@H]1C(=O)N2C(C(=O)[O-])=C(C[n+]3ccccc3)CS[C@H]12)c1csc(N)n1)C(=O)O [Ceftazidime, reference compound]",MIC,[13]; [14],> 16 µg/mL
Gentamicin [reference compound],Minimum inhibitory concentration,"[13]; clinically used antibiotics, clinical isolate A. baumannii FADDI-AB030",>8 µg/mL
"CC1(C)S[C@@H]2[C@H](NC(=O)[C@H](N)c3ccccc3)C(=O)N2[C@H]1C(=O)O [Ampicillin, reference compound]",MIC,[13]; [14],> 16 µg/mL
"C[C@H]1NCc2cc(-c3ccc4c(=O)c(C(=O)O)cn(C5CC5)c4c3OC(F)F)ccc21 [Garenoxacin, reference compound]",MIC,[13]; [14],> 4 µg/mL
